This assay concerns neuron. Nature of the assay: immunofluorescence of ac-S565 and COX2 in primary cells. Type of assay: cell-based, C57BL/6 mice. The conditions noted are these: Ab 10mM, replicates. On the procedure:
To confirm the generation and roles of N-AS in neurons, cells from E18 C57BL/6 mice were prepared as previously described. Cortices were dissected and then dissociated followed by incubation in papain (Worthington) at 37 °C for 15 min. Neurons were plated on poly-L-lysine-coated coverslips with neuronal culture medium, serum-free Neurobasal medium (Gibco) containing 2% B27 supplements (Gibco), 1 mM Glutamax supplement (Gibco), and 100 U ml^−1 streptomycin/ 100 U ml^−1 penicillin (Gibco) at 37 °C in a humidified atmosphere of 5% CO2. […] Primary astrocyte cultures were prepared from C57BL/6 mice as described previously. In brief, after removal of the meninges, postnatal day 7 (P7) mouse brain tissues were minced and incubated in a rocking water bath at 37 °C for 30 min in the presence of 0.25% trypsin-EDTA (Sigma-Aldrich). […] The human microglia treated with Aβ 1–42 and/or zileuton was incubated with N-AS (2.5 μM, 2 h, Sigma-Aldrich, 01912), and were analyzed for the generation and roles of N-AS.
Thioflavin S (Sigma-Aldrich) staining was carried out according to previously described procedures. […] The sections were analyzed with a laser-scanning confocal microscope (FV3000; Olympus) or with a BX51 microscope (Olympus). MetaMorph software (Molecular Devices) was used to quantification. Three-dimensional reconstruction of microglia was recorded and analyzed using IMARIS software (Bitplane)[11]. […]

Values joined by “and” are separate entries in the source; they are usually repeats but may differ in a detail not shown here. Equal values may be shown once.

For “Ab: Aβ 1–42 (Invitrogen, 03112) used to induce an AD environment in cells”, the “ac-S565 with COX2, immunofluorescence quantification (Fig 3c)” value was 0.191 and 0.165 and 0.09731 and 0.2737 and 0.2437 and 0.2571.

These data come from PMC7217877, “N-AS-triggered SPMs are direct regulators of microglia in a model of Alzheimer’s disease” (Nature Communications, 2020).
